Where “and” joins values, the source holds several entries; their conditions need not be identical. Equal entries are not always repeated.
Tests used:
Kir6.2*,C166S-GFP + SUR1 [1] = target: T1, Kir6.2*,C166S-GFP + SUR1 (Homo sapiens, UniProt Q14654, C166S); assay: Current inhibition in excised inside-out patches (patch-clamp fluorometry)
Kir6.2-GFP (no SUR1) = target: T2, Kir6.2-GFP (no SUR1) (Homo sapiens, UniProt Q14654); assay: Current inhibition in excised inside-out patches; type: biochemical; conditions: excised inside-out patches, no SUR1, Mg2+-free, Hill fit
T2 construct: ANAP labelling is specific and only full-length Kir6.2 is expressed at the cell membrane; expressed in transfected cells; host or cells: HEK-293T
T2 sequence (Q14654 1-390): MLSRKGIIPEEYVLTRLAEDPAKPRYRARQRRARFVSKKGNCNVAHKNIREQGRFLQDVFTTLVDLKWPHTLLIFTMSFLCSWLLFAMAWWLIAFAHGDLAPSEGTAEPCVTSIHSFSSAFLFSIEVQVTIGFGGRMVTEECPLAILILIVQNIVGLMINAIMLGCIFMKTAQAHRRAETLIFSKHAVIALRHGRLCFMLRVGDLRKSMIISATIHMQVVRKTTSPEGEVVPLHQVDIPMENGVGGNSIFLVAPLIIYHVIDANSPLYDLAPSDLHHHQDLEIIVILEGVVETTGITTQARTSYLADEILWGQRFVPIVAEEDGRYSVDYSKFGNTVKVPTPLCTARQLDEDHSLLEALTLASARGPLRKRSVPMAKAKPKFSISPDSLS
Method: Currents were measured from patches from cells expressing KATP that were excised in the absence of Mg^2+. Under such conditions, nucleotides can bind to both sites on SUR1, but no activation occurs, allowing inhibitory currents to be measured in isolation ([Gribble et al., 1998]; [Ueda et al., 1999]; [Puljung et al., 2019]).

Kir6.2*,C166S-GFP + SUR1 [2] = target: T1, Kir6.2*,C166S-GFP + SUR1; assay: ANAP fluorescence quenching in excised patches (patch-clamp fluorometry); type: binding; parameters: ANAP labelling is specific and only full-length Kir6.2 is expressed at the cell membrane; expressed in transfected cells; host or cells: HEK-293T; conditions: excised patches (PCF), Hill fit
Method: (§1) Currents were measured as described above.
(§2) ANAP bleaching was corrected as for the unroofed binding experiments with Equation 1 (Figure 2—figure supplement 3A). Due to the lower signal-to-noise ratio for PCF compared to the unroofed membranes, we performed experiments from both high-to-low and low-to-high TNP-ATP concentrations to minimise artifacts from our bleaching corrections.

Kir6.2-GFP + SUR1 = Kir6.2-GFP + SUR1 (Homo sapiens, UniProt Q14654); assay: as above; type: binding; parameters: full length, fully ANAP-labelled Kir6.2 protein was produced and successfully trafficked to the membrane in the presence of SUR1; expressed in transfected cells; host or cells: HEK-293T; conditions: excised patches (PCF), Hill fit
Method: as §1, §2

T1 sequence (Q14654 whole entry C166S): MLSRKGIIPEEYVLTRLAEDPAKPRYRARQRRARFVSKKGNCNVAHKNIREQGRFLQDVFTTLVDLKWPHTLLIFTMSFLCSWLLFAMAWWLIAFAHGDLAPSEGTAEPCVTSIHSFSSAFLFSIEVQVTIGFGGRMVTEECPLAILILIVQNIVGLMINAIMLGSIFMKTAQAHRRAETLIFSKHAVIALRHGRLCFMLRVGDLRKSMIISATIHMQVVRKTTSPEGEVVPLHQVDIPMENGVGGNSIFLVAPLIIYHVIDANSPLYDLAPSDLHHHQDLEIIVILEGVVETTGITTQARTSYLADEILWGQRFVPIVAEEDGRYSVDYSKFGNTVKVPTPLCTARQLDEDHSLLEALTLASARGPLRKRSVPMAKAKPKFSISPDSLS
T1 sequence (Q09428 whole entry partner): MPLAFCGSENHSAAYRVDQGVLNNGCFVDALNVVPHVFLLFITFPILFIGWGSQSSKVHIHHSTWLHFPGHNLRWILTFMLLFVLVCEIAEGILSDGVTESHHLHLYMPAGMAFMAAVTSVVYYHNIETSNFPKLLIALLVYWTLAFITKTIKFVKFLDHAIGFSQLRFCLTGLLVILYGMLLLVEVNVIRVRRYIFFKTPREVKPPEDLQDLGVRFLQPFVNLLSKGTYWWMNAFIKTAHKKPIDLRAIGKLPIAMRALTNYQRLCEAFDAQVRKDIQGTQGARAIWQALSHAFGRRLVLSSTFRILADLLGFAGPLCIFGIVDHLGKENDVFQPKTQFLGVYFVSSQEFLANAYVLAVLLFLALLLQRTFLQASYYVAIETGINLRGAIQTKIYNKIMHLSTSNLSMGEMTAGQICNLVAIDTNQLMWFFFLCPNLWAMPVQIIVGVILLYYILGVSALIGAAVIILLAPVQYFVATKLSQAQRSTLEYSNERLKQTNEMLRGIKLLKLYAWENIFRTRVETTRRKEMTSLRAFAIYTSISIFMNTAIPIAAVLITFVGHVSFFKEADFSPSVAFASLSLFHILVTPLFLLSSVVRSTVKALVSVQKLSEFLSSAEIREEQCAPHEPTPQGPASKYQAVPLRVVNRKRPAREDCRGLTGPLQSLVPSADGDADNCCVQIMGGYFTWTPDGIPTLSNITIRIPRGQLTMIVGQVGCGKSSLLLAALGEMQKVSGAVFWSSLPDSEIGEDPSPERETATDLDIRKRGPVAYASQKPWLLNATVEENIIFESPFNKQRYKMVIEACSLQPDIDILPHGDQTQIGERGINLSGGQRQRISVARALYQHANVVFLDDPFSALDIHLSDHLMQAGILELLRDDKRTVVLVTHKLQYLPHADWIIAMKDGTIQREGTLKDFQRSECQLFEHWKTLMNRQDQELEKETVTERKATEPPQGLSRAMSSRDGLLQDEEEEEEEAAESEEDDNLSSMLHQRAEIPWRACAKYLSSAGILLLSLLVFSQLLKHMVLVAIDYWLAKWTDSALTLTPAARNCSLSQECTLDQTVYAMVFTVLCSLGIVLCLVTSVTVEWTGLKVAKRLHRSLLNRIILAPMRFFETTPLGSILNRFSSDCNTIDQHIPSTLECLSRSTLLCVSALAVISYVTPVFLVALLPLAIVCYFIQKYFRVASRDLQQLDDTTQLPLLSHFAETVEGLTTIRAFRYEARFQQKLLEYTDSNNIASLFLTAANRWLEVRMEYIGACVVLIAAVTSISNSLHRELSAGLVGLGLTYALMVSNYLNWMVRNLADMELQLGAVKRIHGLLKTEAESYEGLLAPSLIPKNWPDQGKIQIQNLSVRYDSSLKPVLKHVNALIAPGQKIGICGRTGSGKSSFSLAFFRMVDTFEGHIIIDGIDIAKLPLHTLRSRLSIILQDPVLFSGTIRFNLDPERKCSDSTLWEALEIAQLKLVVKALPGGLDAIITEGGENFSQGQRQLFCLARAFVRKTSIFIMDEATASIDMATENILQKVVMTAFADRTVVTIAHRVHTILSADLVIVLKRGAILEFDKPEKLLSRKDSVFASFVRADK
Kir6.2-GFP + SUR1, sequence (Q09428 whole entry partner, one chain of several): as the sequence (Q09428 whole entry partner) above

Nc1ncnc2c1ncn2[C@@H]1O[C@H](COP(=O)(O)OP(=O)(O)OP(=O)(O)O)[C@H]2OC3(O[C@H]21)C([N+](=O)[O-])=CC(=[N+]([O-])[O-])C=C3[N+](=O)[O-] (stereo partly shown) [TNP-ATP, trinitrophenyl-ATP]
IC50 (Kir6.2*,C166S-GFP + SUR1 [1]): 776 µM | h (Hill coefficient) current inhibition (Kir6.2*,C166S-GFP + SUR1 [1]; excised inside-out patches, Mg2+-free, Hill fit): 1.35 | IC50 (Kir6.2-GFP (no SUR1); IC50 current inhibition): 273 µM and 275 µM | h (Hill coefficient) current inhibition (Kir6.2-GFP (no SUR1)): 1.09 | h (Hill coefficient) fluorescence quenching (Kir6.2*,C166S-GFP + SUR1 [2]): 0.84 | Emax (Kir6.2*,C166S-GFP + SUR1 [2]; fraction): 100% | EC50 (Kir6.2*,C166S-GFP + SUR1 [2]; n = 6): 67.6 µM | h (Hill coefficient) fluorescence quenching (Kir6.2-GFP + SUR1): 0.87 | Emax (Kir6.2-GFP + SUR1; fraction): 100% | EC50 (Kir6.2-GFP + SUR1; n = 9): 77.7 µM and 77.6 µM
